The text below walks through data of patent US10457676B2, “Capsazepine analogs for the treatment of cancer and other proliferative diseases” (THE BOARD OF REGENTS OF THE UNIVERSITY OF TEXAS SYSTEM, priority 2014, dated 2019).

For one experiment, the system named is SCC4 xenografts. The experiment can be described thus: OSCC mouse xenograft model, intra-tumor injection. In kind it is in vivo, athymic nude mice. As to the method:
All studies were approved by the UTHSCSA Institutional Animal Care and Use Committee. Six week-old female athymic nude mice (Harlan, Indianapolis, Ind.) were used in a laminar air-flow cabinet under pathogen-free conditions. They were provided with a 12 h light/dark schedule at controlled temperature and humidity with food and water ad libitum. Mice were acclimated for one week prior to study initiation.
Mice were injected subcutaneously in the right flank with 2×10^6 SCC4 cells in 0.1 mL of sterile PBS. Four weeks post-inoculation, tumors grew to an average volume of 150 mm^3. Mice were stratified into two experimental groups (n=5 per group), which received the following treatments as intra-tumor injections: group A, vehicle control; group B, capsazepine or capsazepine derivative (analog) treatment. Treatments were repeated every other day for a total of 14 days.
Capsazepine and novel capsazepine analogs stock solutions (20 μg/μL, 100% Ethanol) were diluted to 5% Ethanol in sterile saline generating a final concentration of 1 μg/μL. SCC4 xenografts received intra-tumor injections of 40 μg CIDD24 or 40 μg capsazepine every other day (FIG. 4) for two weeks. In a second study SCC4 xenografts were injected with 80 μg CIDD24 or 80 μg CIDD111 every other day for two weeks (FIG. 5). Control xenografts received intra-tumor injections with vehicle control (5% Ethanol in sterile saline). Mice were monitored daily for tumor growth (using digital calipers), cachexia, and weight loss. Body temperature was monitored for 24 h following treatments. Tumor volumes were calculated by the elliptical formula: ½(Length×Width^2) (Jensen, et al., 2008).
Statistical analysis was performed using GraphPad Prism4 (San Diego, Calif.). Experiments were performed in triplicate and results are represented as means±SD except when indicated. Cytotoxicity assays of cell viability were analyzed by one-way ANOVA and Bonferroni's post hoc test (n=4). Statistical analyses of tumor growth were made using analysis of variance with repeated measures with Bonferroni's post hoc test (n=5). A p value less than 0.05 was considered statistically significant.

In a further experiment the test system is HSC3 cells. The experiment can be described thus: Cell viability with antioxidant N-acetyl-cysteine (reversal, ROS mechanism). It is filed as cell-based, human. The note with it: 10 μM, 24 hours. How it is done: OSCC cell lines, SCC4, SCC25, and HSC3 were derived from human primary tongue OSCC. SCC4 and SCC25 cells were obtained from ATCC (Rockville, Md.). HSC3 cells were kindly provided by Dr. Brian Schmidt (NYU) (Saghafi, et al., 2011). Breast cancer cells (MDA231), Prostate cancer cells (PC3), and Non-Small Cell Lung Cancer cells (H460) were obtained from ATCC (Rockville, Md.). Cells were maintained in DMEM (Gibco, Carlsbad, Calif.) containing 10% FBS at 37° C. in 5% CO2. Immortalized keratinocytes (OKF6-TERT2; Harvard Medical School Cell Culture Core Collection, Cambridge, Mass.) were used as control epithelial cells.
Cytotoxicity was assessed using the Cell Titer 96® Aqueous Non-Radioactive Cell Proliferation Assay (Promega, Madison, Wis.) according to manufacturer's protocol. Absorbance values of test groups were normalized against controls (n=4).
ROS levels in OSCC cell lines were examined by flow cytometry using 2,7-dichlorodihydrofluorescein diacetate (DCF-DA; Sigma-Aldrich, St. Louis, Mo.). Cells (3×10^5) were plated in 12-well plates and incubated for 30 min with DCF-DA at 37° C. then treated with 30 μM of the appropriate capsazepine derivative or capsazepine using phenol free media with and without 10 mM NAC. Treated cells were incubated for 1 h at 37° C., harvested, washed twice, and analyzed by FACS.

In a further experiment the test system is oral cancer tumors. The settings on record: direct injection into tumors; cited from earlier work.
Where [1] appears, read: SCC4 tumors, 40 μg intra-tumor every other day for two weeks, n=5.
[2] abbreviates: SCC4 tumors, 80 μg every other day for two weeks, p<0.001.

For `O=C(NCCc1ccc(Cl)cc1)N1CCc2cc(O)c(O)cc2C1` [CIDD25, N-[2-(4-chlorophenyl)ethyl]-6,7-dihydroxy-1,2,3,4-tetrahydroisoquinoline-2-carboxamide], in the experiment on SCC4 xenografts (setting [1]), the “reduction in tumor growth compared to vehicle control” value (“reduction in tumor growth” for short) was 50%. As for `Oc1cc2c(cc1O)C(c1ccccc1)N(C(=S)NCCc1ccc(Cl)cc1)CC2` (centres unmarked) [CIDD 99, N-[2-(4-chlorophenyl)ethyl]-6,7-dihydroxy-1-phenyl-1,2,3,4-tetrahydroisoquinoline-2-carbothioamide], the “cell growth inhibition with 10 mM N-acetyl-cysteine added” value (“cell growth inhibition” for short) with HSC3 cells is given as “reversed”. For `Oc1cc2c(cc1O)CN(C(=S)NCCc1ccc(Cl)cc1)CCC2` [capsazepine], the “cell growth inhibition” value in the experiment on HSC3 cells is recorded as “reversed”. Besides, the “tumor volume after administration” value with oral cancer tumors is reported as “reduction of tumor volume”. Besides, in the experiment with SCC4 xenografts (setting [1]), the “reduction in tumor growth” value was approximately 50%. Regarding `Oc1cc2c(cc1O)C(c1ccccc1)N(C(=S)NCCc1ccc(Cl)cc1Cl)CC2` (centres unmarked) [CIDD 118, N-[2-(2,4-dichlorophenyl)ethyl]-6,7-dihydroxy-1-phenyl-1,2,3,4-tetrahydroisoquinoline-2-carbothioamide], the “cell growth inhibition” value with HSC3 cells is reported as “reversed”.

Regarding `Oc1cc2c(cc1O)C(c1ccccc1)N(C(=S)NCc1ccccc1)CC2` (centres unmarked) [CIDD111, N-benzyl-6,7-dihydroxy-1-phenyl-1,2,3,4-tetrahydroisoquinoline-2-carbothioamide], the “reduction in tumor growth” value in the experiment on SCC4 xenografts (setting [2]) was “significant reduction in tumor growth”. The “efficacy compared with CIDD24” value in the experiment on SCC4 xenografts (SCC4 tumors, 80 μg every other day for two weeks, no significant difference in potency) was “slightly more effective than CIDD24”. For `Oc1cc2c(cc1O)CN(C(=S)NCCc1ccc(Cl)cc1)CC2` [CIDD24, N-[2-(4-chlorophenyl)ethyl]-6,7-dihydroxy-1,2,3,4-tetrahydroisoquinoline-2-carbothioamide], the “reduction in tumor growth” value was 80% in the experiment on SCC4 xenografts (setting [1]) and “significant reduction in tumor growth” in the experiment on SCC4 xenografts (setting [2]). Also, the “tumor volume % change, difference between CIDD 24 and capsazepine” value in the experiment on SCC4 xenografts (SCC4 xenografts, 40 μg (1 μg/μl), 10 day period, #=p<0.05) is “statistically significant difference”.
